The text below walks through data of US20090123501A1, “INHIBITION OF THE SH2-DOMAIN CONTAINING PROTEIN TYR-PHOSPHATASE, SHP-1, TO ENHANCE VACCINES” (Baylor College of Medicine, priority 2007, published 2009).

The subject of one data set is TRAMP C2 tumors. In words: DC vaccination of mice bearing ectopic TRAMP C2 tumors. In kind it is in vivo, C57BL/6 mice. The settings on record: by viral transduction, pooled across all peptide treatments, vs untreated mice. As to the method:
BMDCs were prepared as described above, transduced with either Ad5-SHP-1-shRNA or the control Ad5-scrambled-shRNA at 40,000 viral particles/cell, and pulsed with one of the six peptides listed in Table 1 (OVA, an irrelevant epitope to TRAMP 2 tumors, served as a negative control peptide) or a lysate of TRAMP C2 cells as a positive control antigen. 6-8 week C57BL/6 mice, bearing TRAMP C2 tumors (7×10^6 cells injected s.c. on the dorsal flank three days prior to vaccination), were given a single i.p. vaccination with 2×10^6 treated DCs or left untreated. Tumors were measured (length and width using calipers) every 2-4 days until termination of the study and tumor volume was estimated using the formula: Tumor volume (mm3)=x^2y×0.5236, where x is the smaller tumor dimension, and y is the larger tumor dimension. A-G) TRAMP tumor growth curves for vaccines loaded with the indicated peptides. Error bars represent the standard error of the mean of 5 mice vaccinated in each treatment. […] H-I) ANOVA analysis of peptide function and SHP-1 function. Data represent the averages 10 mice per peptide treatment and 5 mice in the no treatment control group for H) and 35 mice per viral transduction treatment and 5 mice in the no treatment control group for I). The green diamonds represent the mean and 95% confidence interval for each group from the ANOVA. The black line is the mean of means for the study and red symbols indicate significant differences (p<0.05 by Tukey-Kramer HSD multiple comparisons test).
To determine if there was a significant difference between the various peptides used in these DC vaccinations, mice were pooled across viral treatments (Ad5-SHP-1 shRNA or Ad5-scrambled-shRNA) employing the same peptide. An ANOVA for differences in mean tumor volume at day 48 post-vaccination (the time at which the majority of the vaccinated tumor growth curves change slope) and Tukey-Kramer HSD multiple comparisons test.
Next experiments were conducted to determine if vaccines transduced with Ad5-SHP-1-shRNA inhibited tumor growth compared to transduction with Ad5-scrambled-shRNA or no vaccine treatment, irrespective of what peptide was used in the vaccine.

For another data set, the system named is D2SC/1 cells. Kind of data set: Cell death of D2SC/1 cells after adenoviral infection. The format is cell-based, murine. To be noted: D2SC/1 cells, 40,000 viral particles/cell.
The next data set concerns BMDCs. Kind of data set: DC survival by annexin V and propidium iodide flow cytometry. The format is cell-based, C57BL/6 mice. The settings on record: CD11c purified BMDCs. As to the method:
Primary bone marrow-derived dendritic cells (BMDCs) were prepared from wild type mice in the following manner: Bone marrow cells were flushed from the femurs and tibias of C57BL/6 mice and cultured for 6 days in RPMI media supplemented with 10% FBS, 10 ng/mL IL-4 and 10 ng/mL GMCSF along with antibiotics. On day 6, dendritic cells (DCs) were either purified by magnetic bead assisted cell sorting (MACS; Miltenyi Biotec, Auburn, Calif.) prior to adenoviral transduction, or used as unpurified bulk DCs that were then transduced with adenovirus.
BMDCs were prepared as described above and purified by CD11c (a marker for DC) MACS. Purified DCs were transduced with either Ad5-SHP1-shRNA or Ad5-scrambled-shRNA or left untreated and the virus was washed away following a two hour exposure. Cell survival was determined at 24 hours, 48 hours and 72 hours after infection by annexin V and propidium iodide (PI) staining and analyzed by flow cytometry. Annexin V binds to phosphatidylserine and is an early marker of apoptosis. PI is a DNA intercalating dye that can only enter cells when their membrane is integrity is disrupted and is a marker of cells late in the apoptotic process. Viral infection of DCs causes cells to undergo apoptosis where approximately 50% were dead or dying within the first 24 hours and 85% were dead or dying by 72 hours post-infection (FIG. 8 Ad5-scrambled-shRNA). […]

For another data set, the system named is Akt. In words: LPS stimulated Akt signaling in BMDCs, western blot. The settings on record: CD11c positive BMDCs. In kind it is cell-based, C57BL/6 mice. As to the method: DC survival has been linked with activation of Akt/protein kinase B (PKB) family proteins, major effectors of phosphatidylinositol 3-kinase (PI3K) family members. LPS stimulated Akt signaling BMDCs was examined to determine if SHP-1 mediated survival might be working through this mechanism. MACS sorted for CD11c positive BMDCs were infected with either Ad5-SHP-1-shRNA or Ad5-scrambled-shRNA or left untreated. Cells (10^7) per group were treated with 1 μg/mL LPS for the times indicated or left untreated. Lysates were analyzed by western blot for phosphorylated Akt. […] This observation provides a mechanism for the increased survival seen when SHP-1 signaling was inhibited, in certain embodiments (FIG. 8). LPS stimulation also appears to enhance the total level of SHP-1 protein in DCs as shown by the SHP-1 blot for cells treated with Ad5-scrambled-shRNA.
Background: In western blotting, separated proteins are transferred to a membrane and probed.

The next data set relates to B16 tumors. Kind of data set: DC vaccination of mice bearing ectopic B16 melanoma tumors. The format is in vivo, C57BL/6 mice. As to the method: The B16 melanoma, which is both aggressive and poorly immunogenic, expresses tyrosinase related protein-2 (Trp-2) of which peptide, […] (SEQ ID NO:13), is recognized by CD8^+ T cells in the context of H-2K^b. B16 represents a much more difficult tumor to treat than TRAMP and is considered the “gold standard” for ectopic tumor models in the C57BL/6 background. BMDCs were prepared as described above, pulsed with the Trp-2 and then transduced with either Ad5-SHP-1 shRNA or the control Ad5-scrambled-shRNA virus at 40,000 viral particles/cell. 6-8 week C57BL/6 mice, bearing B16 tumors (5×10^5 cells injected s.c. on the dorsal flank three days prior to vaccination), were given a single i.p. vaccination with 2×10^6 treated DCs or left untreated. Tumors were measured every 2-4 days until termination of the experiment and tumor volume was calculated as described above. […] To determine if this difference was statistically significant, ANOVA and Tukey-Kramer HSD multiple comparisons test were performed.
BMDCs were prepared as described above, pulsed with the Trp-2 and then transduced with either Ad5-SHP-1 shRNA or the control Ad5-scrambled-shRNA virus at 40,000 viral particles/cell. […] Tumors were measured every 2-4 days until termination of the experiment and tumor volume was calculated as described above. […]

Consider “CACCGGAGCATGACACAGCAGAATACGAATATTCTGCTGTGTCATGCTCC (chemistry not given here) [Ad5-SHP-1-shRNA]”, for which the “TRAMP C2 tumor volume (ANOVA)” value in the data set on TRAMP C2 tumors was “significantly lower tumor volumes”. In addition, the cell death result in the data set on D2SC/1 cells is “minimal cell death”. The “cells dead or dying” value amounted to 55% in the data set on BMDCs (by 72 hours post-infection) and 35% in the data set on BMDCs (within the first 24 hours post-infection). Further, in the data set with Akt, the “steady state expression of total Akt protein” value is listed as “enhanced the steady state expression of total Akt protein”. Further, the “LPS mediated Akt phosphorylation” value in the data set on Akt (1 μg/mL LPS) is recorded as “enhanced LPS mediated Akt phosphorylation”. For the same sequence, the “B16 mean tumor volume (growth curves)” value in the data set on B16 tumors (Trp-2 pulsed DCs, 40,000 viral particles/cell, single i.p. 2×10^6 DCs, beginning at day 18) is given as “markedly smaller mean tumor volumes”. In addition, in the data set with B16 tumors (Trp-2 pulsed DCs, compared with either control group), the “B16 mean tumor volume (ANOVA)” value is reported as “significantly lower mean tumor volume”.
